Test results taken from patent US12157741B2, “Macrocyclic inhibitors of DYRK1A” (DANA-FARBER CANCER INSTITUTE, INC., priority 2018, dated 2024).
Like-named read-outs stand apart in the source and are kept apart here.

What was measured:
Type in all cases: binding
various enzymes [1] = target: various enzymes (Homo sapiens, UniProt Q8TD19); conditions: compound 1 uM
Experimental: (§1) Ambit profiling was conducted in accordance with the manufacturer's instructions.

various enzymes [2] = target: various enzymes (Homo sapiens, UniProt P42336, E545A)
Experimental: as §1

various enzymes [3] = target: various enzymes (Homo sapiens, UniProt Q92630); conditions: compound 1 uM
Experimental: as §1

various enzymes [4] = target: various enzymes (Homo sapiens, UniProt Q9UM73, C1156Y)
Sequence of various enzymes (Homo sapiens, UniProt Q9UM73, C1156Y) (Q9UM73 19-1620 C1156Y): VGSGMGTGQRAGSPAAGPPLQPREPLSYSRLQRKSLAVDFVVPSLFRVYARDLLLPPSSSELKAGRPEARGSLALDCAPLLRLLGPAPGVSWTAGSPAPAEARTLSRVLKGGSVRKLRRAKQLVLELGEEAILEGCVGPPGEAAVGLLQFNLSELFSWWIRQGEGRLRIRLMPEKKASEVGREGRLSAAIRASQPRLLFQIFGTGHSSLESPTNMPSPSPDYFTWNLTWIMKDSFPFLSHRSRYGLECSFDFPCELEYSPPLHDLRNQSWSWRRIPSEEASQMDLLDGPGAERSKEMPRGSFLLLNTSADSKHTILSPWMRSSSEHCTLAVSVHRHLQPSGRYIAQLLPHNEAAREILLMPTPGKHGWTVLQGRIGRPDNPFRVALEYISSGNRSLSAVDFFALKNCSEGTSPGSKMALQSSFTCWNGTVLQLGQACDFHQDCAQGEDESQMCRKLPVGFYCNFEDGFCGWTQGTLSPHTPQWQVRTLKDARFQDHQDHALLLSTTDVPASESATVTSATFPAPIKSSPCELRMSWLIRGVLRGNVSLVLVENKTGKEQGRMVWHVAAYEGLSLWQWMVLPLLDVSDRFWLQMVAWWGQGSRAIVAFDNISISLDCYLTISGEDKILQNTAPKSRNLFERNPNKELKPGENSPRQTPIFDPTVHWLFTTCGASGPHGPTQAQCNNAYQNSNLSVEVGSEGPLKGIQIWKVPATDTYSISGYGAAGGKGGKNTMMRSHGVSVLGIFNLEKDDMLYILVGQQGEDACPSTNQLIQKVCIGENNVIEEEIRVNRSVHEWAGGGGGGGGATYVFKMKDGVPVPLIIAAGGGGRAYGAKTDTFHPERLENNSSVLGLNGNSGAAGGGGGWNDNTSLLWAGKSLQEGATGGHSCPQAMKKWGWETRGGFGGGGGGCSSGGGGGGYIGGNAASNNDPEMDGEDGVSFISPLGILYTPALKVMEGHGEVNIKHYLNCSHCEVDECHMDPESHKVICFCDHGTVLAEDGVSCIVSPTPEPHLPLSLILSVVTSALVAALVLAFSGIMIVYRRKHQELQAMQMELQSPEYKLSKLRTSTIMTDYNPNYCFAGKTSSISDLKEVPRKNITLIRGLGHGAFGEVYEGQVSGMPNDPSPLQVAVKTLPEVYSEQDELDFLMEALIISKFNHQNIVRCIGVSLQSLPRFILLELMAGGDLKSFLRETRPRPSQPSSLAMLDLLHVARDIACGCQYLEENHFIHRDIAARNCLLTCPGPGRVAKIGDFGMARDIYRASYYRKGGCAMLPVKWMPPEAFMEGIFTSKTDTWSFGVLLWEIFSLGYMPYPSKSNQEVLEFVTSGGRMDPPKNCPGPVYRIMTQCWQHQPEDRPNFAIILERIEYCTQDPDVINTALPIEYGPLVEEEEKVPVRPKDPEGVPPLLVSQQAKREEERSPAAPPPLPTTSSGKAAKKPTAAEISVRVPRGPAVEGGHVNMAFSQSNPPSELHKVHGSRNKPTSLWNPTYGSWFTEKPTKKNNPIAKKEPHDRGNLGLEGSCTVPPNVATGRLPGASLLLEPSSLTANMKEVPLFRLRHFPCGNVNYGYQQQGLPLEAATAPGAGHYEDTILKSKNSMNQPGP
Experimental: as §1

various enzymes [5] = target: various enzymes (Homo sapiens, UniProt Q16659); conditions: compound 1 uM
Experimental: as §1

various enzymes [6] = target: various enzymes (Homo sapiens, UniProt P42336, H1047Y)
Experimental: as §1

various enzymes [7] = target: various enzymes (Homo sapiens, UniProt P36894); conditions: compound 1 uM
Experimental: as §1

various enzymes [8] = target: various enzymes (Homo sapiens, UniProt O00750); conditions: compound 1 uM
Experimental: as §1

various enzymes [9] = target: various enzymes (Homo sapiens, UniProt Q06418); conditions: compound 1 uM
Experimental: as §1

various enzymes [10] = target: various enzymes (Homo sapiens, UniProt Q9BXA7); conditions: compound 1 uM
Experimental: as §1

various enzymes [11] = target: various enzymes (Homo sapiens, UniProt P11309); conditions: compound 1 uM
Sequence of various enzymes (Homo sapiens, UniProt P11309) (P11309 whole entry): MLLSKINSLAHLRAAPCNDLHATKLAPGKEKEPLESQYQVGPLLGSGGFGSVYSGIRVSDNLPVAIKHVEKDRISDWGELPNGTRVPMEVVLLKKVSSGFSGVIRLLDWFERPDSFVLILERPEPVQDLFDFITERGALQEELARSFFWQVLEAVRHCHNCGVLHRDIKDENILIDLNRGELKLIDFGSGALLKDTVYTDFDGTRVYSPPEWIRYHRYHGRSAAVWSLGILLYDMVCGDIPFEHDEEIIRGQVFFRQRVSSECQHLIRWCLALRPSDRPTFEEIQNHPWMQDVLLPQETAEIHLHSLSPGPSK
Experimental: as §1

various enzymes [12] = target: various enzymes (Homo sapiens, UniProt P36888, N841I); conditions: compound 1 uM
Experimental: as §1

various enzymes [13] = target: various enzymes (Homo sapiens, UniProt P06241); conditions: compound 1 uM
Experimental: as §1

various enzymes [14] = target: various enzymes (Homo sapiens, UniProt Q9HBH9); conditions: compound 1 uM
Experimental: as §1

various enzymes [15] = target: various enzymes (Homo sapiens, UniProt Q96NX5); conditions: compound 1 uM
Experimental: as §1

various enzymes [16] = target: various enzymes (Homo sapiens, UniProt Q9Y6R4); conditions: compound 1 uM
Experimental: as §1

various enzymes [17] = target: various enzymes (Homo sapiens, UniProt P00533, L858R)
Experimental: as §1

various enzymes [18] = target: various enzymes (Homo sapiens, UniProt Q9UQM7); conditions: compound 1 uM
Experimental: as §1

various enzymes [19] = target: various enzymes (Homo sapiens, UniProt P42685); conditions: compound 1 uM
Sequence of various enzymes (Homo sapiens, UniProt P42685) (P42685 whole entry): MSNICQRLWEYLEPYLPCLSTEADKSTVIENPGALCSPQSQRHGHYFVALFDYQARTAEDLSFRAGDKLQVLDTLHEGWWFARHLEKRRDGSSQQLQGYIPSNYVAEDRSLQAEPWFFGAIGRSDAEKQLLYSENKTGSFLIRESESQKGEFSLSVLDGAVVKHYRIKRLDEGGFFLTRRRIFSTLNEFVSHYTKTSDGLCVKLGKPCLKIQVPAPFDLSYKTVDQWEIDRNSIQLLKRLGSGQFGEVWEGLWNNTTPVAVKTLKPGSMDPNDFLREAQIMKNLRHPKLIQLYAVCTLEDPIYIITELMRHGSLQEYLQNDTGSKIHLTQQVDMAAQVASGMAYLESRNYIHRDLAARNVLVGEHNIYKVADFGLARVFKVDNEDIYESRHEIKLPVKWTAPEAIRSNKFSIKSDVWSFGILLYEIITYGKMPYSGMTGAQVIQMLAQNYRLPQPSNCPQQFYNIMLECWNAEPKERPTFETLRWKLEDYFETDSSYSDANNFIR
Experimental: as §1

various enzymes [20] = target: various enzymes (Homo sapiens, UniProt P51817); conditions: compound 1 uM
Experimental: as §1

various enzymes [21] = target: various enzymes (Homo sapiens, UniProt O15530); conditions: compound 1 uM
Experimental: as §1

various enzymes [22] = target: various enzymes (Homo sapiens, UniProt P10721); conditions: compound 1 uM
Sequence of various enzymes (Homo sapiens, UniProt P10721) (P10721 26-976): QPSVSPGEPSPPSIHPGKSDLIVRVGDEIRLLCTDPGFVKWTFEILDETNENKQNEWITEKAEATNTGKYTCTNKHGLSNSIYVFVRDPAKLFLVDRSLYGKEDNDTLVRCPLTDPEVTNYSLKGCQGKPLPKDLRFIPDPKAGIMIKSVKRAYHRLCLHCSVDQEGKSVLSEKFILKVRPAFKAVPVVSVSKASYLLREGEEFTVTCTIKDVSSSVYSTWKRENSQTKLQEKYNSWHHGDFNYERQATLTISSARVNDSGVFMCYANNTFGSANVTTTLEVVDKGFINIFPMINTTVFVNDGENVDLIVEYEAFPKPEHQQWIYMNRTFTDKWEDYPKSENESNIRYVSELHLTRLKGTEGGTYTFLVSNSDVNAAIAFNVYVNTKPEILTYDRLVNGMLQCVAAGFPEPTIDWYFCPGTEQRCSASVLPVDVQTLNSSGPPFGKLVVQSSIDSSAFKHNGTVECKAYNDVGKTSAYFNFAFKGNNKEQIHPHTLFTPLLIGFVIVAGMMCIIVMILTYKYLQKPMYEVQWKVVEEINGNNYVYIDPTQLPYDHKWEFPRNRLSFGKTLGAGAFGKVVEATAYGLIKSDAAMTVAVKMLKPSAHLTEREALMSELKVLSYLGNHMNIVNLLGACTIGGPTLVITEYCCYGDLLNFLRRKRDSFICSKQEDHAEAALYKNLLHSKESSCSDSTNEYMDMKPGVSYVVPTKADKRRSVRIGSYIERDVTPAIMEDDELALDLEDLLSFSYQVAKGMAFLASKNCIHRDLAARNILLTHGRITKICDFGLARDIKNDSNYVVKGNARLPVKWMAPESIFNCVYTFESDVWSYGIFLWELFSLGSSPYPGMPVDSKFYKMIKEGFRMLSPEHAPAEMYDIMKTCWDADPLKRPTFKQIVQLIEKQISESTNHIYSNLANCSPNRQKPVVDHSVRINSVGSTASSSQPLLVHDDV
Experimental: as §1

various enzymes [23] = target: various enzymes (Homo sapiens, UniProt P00533, G719S)
Experimental: as §1

various enzymes [24] = target: various enzymes (Homo sapiens, UniProt P42336, C420R)
Experimental: as §1

various enzymes [25] = target: various enzymes (Homo sapiens, UniProt Q00526); conditions: compound 1 uM
Sequence of various enzymes (Homo sapiens, UniProt Q00526) (Q00526 whole entry): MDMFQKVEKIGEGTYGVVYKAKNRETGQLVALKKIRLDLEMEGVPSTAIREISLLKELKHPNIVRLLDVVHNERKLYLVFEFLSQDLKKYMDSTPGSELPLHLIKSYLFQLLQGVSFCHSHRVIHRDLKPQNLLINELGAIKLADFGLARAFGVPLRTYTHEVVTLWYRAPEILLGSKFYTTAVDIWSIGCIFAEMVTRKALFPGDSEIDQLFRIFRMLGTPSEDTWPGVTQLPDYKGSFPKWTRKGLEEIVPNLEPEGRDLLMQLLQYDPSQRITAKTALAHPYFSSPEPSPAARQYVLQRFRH
Experimental: as §1

various enzymes [26] = target: various enzymes (Homo sapiens, UniProt P78368); conditions: compound 1 uM
Experimental: as §1

various enzymes [27] = target: various enzymes (Homo sapiens, UniProt O96017); conditions: compound 1 uM
Experimental: as §1

various enzymes [28] = target: various enzymes (Homo sapiens, UniProt P42336, Q546K)
Experimental: as §1

various enzymes [29] = target: various enzymes (Homo sapiens, UniProt O76039); conditions: compound 1 uM
Experimental: as §1

various enzymes [30] = target: various enzymes (Homo sapiens, UniProt Q9P286); conditions: compound 1 uM
Experimental: as §1

various enzymes [31] = target: various enzymes (Homo sapiens, UniProt Q13555); conditions: compound 1 uM
Experimental: as §1

various enzymes [32] = target: various enzymes (Homo sapiens, UniProt P51957); conditions: compound 1 uM
Experimental: as §1

various enzymes [33] = target: various enzymes (Homo sapiens, UniProt P35626); conditions: compound 1 uM
Experimental: as §1

various enzymes [34] = target: various enzymes (Homo sapiens, UniProt Q9UKI8); conditions: compound 1 uM
Sequence of various enzymes (Homo sapiens, UniProt Q9UKI8) (Q9UKI8 whole entry): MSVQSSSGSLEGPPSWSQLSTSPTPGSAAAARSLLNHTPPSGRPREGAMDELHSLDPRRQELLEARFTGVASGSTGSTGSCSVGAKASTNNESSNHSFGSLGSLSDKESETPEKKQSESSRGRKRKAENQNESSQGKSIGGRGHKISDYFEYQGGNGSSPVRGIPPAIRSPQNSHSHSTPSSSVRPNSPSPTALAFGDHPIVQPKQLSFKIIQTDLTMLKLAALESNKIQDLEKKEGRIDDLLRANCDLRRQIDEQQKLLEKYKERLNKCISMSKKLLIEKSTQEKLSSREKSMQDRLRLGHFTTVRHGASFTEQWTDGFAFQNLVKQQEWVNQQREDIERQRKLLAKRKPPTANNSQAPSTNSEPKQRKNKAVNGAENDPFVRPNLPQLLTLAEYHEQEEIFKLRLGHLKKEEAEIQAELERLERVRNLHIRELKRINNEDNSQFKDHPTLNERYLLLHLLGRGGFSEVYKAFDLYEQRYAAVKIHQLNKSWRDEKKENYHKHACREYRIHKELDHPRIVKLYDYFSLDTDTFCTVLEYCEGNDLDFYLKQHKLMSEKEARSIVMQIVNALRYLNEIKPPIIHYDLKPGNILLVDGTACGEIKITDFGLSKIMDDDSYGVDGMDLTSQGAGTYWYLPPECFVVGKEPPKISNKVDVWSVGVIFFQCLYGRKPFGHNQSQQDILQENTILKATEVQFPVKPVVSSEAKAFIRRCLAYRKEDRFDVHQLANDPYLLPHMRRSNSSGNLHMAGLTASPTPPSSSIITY
Experimental: as §1

various enzymes [35] = target: various enzymes (Homo sapiens, UniProt P50750); conditions: compound 1 uM
Sequence of various enzymes (Homo sapiens, UniProt P50750) (P50750 whole entry): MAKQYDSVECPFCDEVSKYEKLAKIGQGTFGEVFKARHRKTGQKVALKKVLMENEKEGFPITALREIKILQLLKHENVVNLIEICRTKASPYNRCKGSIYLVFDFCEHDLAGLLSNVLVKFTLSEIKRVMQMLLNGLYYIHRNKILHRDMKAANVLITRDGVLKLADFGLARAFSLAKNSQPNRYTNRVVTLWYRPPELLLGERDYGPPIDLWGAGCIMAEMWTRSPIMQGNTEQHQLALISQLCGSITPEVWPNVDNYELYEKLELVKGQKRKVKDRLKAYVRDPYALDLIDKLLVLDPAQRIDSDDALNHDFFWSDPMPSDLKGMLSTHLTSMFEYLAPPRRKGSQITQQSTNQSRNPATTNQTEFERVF
Experimental: as §1

various enzymes [36] = target: T1, various enzymes (Homo sapiens, UniProt O14757); conditions: compound 1 uM
T1 sequence (O14757 1-476): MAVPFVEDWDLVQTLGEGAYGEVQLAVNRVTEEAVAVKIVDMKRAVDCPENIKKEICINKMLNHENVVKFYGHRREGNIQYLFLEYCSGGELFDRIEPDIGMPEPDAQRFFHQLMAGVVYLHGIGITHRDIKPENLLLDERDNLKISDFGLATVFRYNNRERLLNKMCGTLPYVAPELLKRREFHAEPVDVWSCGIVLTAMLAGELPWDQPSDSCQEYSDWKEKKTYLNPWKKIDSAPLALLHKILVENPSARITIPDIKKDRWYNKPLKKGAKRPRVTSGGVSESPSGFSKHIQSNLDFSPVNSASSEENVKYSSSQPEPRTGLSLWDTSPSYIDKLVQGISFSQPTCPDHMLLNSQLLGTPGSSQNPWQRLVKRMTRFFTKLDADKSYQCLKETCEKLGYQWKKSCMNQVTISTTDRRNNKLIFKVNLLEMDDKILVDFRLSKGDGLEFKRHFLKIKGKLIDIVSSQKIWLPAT
Experimental: as §1

various enzymes [37] = target: various enzymes (Homo sapiens, UniProt Q7KZI7); conditions: compound 1 uM
Experimental: as §1

SMILES | Ambit profiling: NEK9 (various enzymes [1]) | Ambit profiling: DYRK2 (various enzymes [3]) | Ambit profiling: ERK3 (various enzymes [5]) | Ambit profiling: BMPR1A (various enzymes [7]) | Ambit profiling: PIK3C2B (various enzymes [8]) | Ambit profiling: TYRO3 (various enzymes [9]) | Ambit profiling: TSSK1B (various enzymes [10]) | Ambit profiling: PIM1 (various enzymes [11]) | Ambit profiling: FYN (various enzymes [13]) | Ambit profiling: MKNK2 (various enzymes [14]) | Ambit profiling: CAMK1G (various enzymes [15]) | Ambit profiling: MAP3K4 (various enzymes [16]) | Ambit profiling: CAMK2A (various enzymes [18]) | Ambit profiling: FRK (various enzymes [19]) | Ambit profiling: PRKX (various enzymes [20]) | Ambit profiling: PDPK1 (various enzymes [21]) | Ambit profiling: KIT (various enzymes [22]) | Ambit profiling: KIT-autoinhibited (various enzymes [22]) | Ambit profiling: CDK3 (various enzymes [25]) | Ambit profiling: CSNK1G2 (various enzymes [26]) | further results
CC(C)N1Cc2nn(C)cc2-c2cnc3[nH]cc(c3c2)-c2cn(nc2C(F)(F)F)CCCC1=O [Compound 45, (Z)-5-isopropyl-31-methyl-13-(trifluoromethyl)-11H,21H,31H-5-aza-2(3,5)-pyrrolo[2,3-b]pyridina-1(4,1),3(4,3)-dipyrazolacyclononaphan-6-one] | 100 | 25 | 100 | 97 | 92 | 87 | 83 | 75 | 39 | 100 | 88 | 94 | 7.7 | 11 | 100 | 98 | 6.5 | 69 | 33 | 100 | Ambit profiling: PIK3CA(E545A) (various enzymes [2]; compound 1 uM): 56; Ambit profiling: ALK(C1156Y) (various enzymes [4]; compound 1 uM): 16; Ambit profiling: PIK3CA(H1047Y) (various enzymes [6]; compound 1 uM): 84; Ambit profiling: FLT3(N841I) (various enzymes [12]): 0; Ambit profiling: EGFR(L858R) (various enzymes [17]; compound 1 uM): 25; Ambit profiling: EGFR(G719S) (various enzymes [23]; compound 1 uM): 41; Ambit profiling: PIK3CA(C420R) (various enzymes [24]; compound 1 uM): 100; Ambit profiling: CHEK2 (various enzymes [27]): 82; Ambit profiling: PIK3CA(Q546K) (various enzymes [28]; compound 1 uM): 100; Ambit profiling: CDKL5 (various enzymes [29]): 68; Ambit profiling: PAK7 (various enzymes [30]): 51; Ambit profiling: CAMK2G (various enzymes [31]): 24; Ambit profiling: NEK4 (various enzymes [32]): 93; Ambit profiling: GRK3 (various enzymes [33]): 100; Ambit profiling: TLK1 (various enzymes [34]): 55; Ambit profiling: CDK9 (various enzymes [35]): 60; Ambit profiling: CHEK1 (various enzymes [36]): 100; Ambit profiling: MARK2 (various enzymes [37]): 48
COc1c2c(nn1C)CN(C(C)C)C(=O)CCCn1cc(c(C(F)(F)F)n1)-c1c[nH]c3ncc-2cc13 [Compound 50, (Z)-5-isopropyl-35-methoxy-31-methyl-13-(trifluoromethyl)-11H,21H,31H-5-aza-2(3,5)-pyrrolo[2,3-b]pyridina-1(4,1),3(4,3)-dipyrazolacyclononaphan-6-one] | 82 | 56 | 69 | 88 | 100 | 99 | 43 | 77 | 28 | 53 | 54 | 60 | 12 | 10 | 100 | 100 | 2.9 | 76 | 78 | 83 | Ambit profiling: PIK3CA(E545A) (various enzymes [2]): 82; Ambit profiling: ALK(C1156Y) (various enzymes [4]): 26; Ambit profiling: PIK3CA(H1047Y) (various enzymes [6]): 100; Ambit profiling: FLT3(N841) (various enzymes [12]): 0; Ambit profiling: EGFR(L858R) (various enzymes [17]): 18; Ambit profiling: EGFR(G719S) (various enzymes [23]): 41; Ambit profiling: PIK3CA(C420R) (various enzymes [24]): 91; Ambit profiling: CHEK2 (various enzymes [27]): 80; Ambit profiling: PIK3CA(Q546K) (various enzymes [28]): 86; Ambit profiling: CDKL5 (various enzymes [29]): 100; Ambit profiling: PAK7 (various enzymes [30]): 100; Ambit profiling: CAMK2G (various enzymes [31]): 31; Ambit profiling: NEK4 (various enzymes [32]): 100; Ambit profiling: GRK3 (various enzymes [33]): 85; Ambit profiling: TLK1 (various enzymes [34]): 58; Ambit profiling: CDK9 (various enzymes [35]): 47; Ambit profiling: CHEK1 (various enzymes [36]): 100; Ambit profiling: MARK2 (various enzymes [37]): 100
